Test results taken from US10328092B2, “Methods and compositions for treatment of drug addiction” (The Royal Institution for the Advancement of Learning / …, priority 2015, dated 2019).

System: microglia in the nucleus accumbens
Experiment: Microglia activation in nucleus accumbens (Iba1 immunostaining, morphology)
Format: in vivo, mouse
Protocol: Resting microglia have a ramified morphology but continuously survey the healthy brain and respond to a variety of activation signals by undergoing progressive morphological and functional changes (Kettenmann et al., 2011). Cocaine administration could activate microglia in the NAc, which could lead to the observed elevation of TNFα. Using the microglia marker Iba1, microglia was labeled in adult mice, 24 hours after a single cocaine injection, 24 hrs after 5 days of daily cocaine injections, or after 10 days of drug abstinence. Although no change was identified in the number of microglia in the NAc at any time point (FIG. 10E), Iba1 intensity was increased in microglia by 5 days of cocaine, and after a period of abstinence (FIG. 6C-D), indicating activation. […] In contrast to the change in microglia, no activation of astrocytes was observed, as judged by GFAP expression. […] This is consistent with the observation that TNFα is derived from microglia and not astrocytes during sensitization.
Mice (8-10 weeks) were perfused and their brains submerged overnight in 4% PFA, cryoprotected with 30% sucrose, and cut in 30 μm thick coronal slices using a cryostat. […] Images of the ventral striatum (nucleus accumbens core and shell) were acquired with a 40× or 60× objective and stacks of 25-30 optical sections (1 μm per section) of depth were Z-projected into a single window and analysed using ImageJ software (NIH).
The number of Iba1+ microglia were manually counted from 212×212 μm (60× objectives) or 317×317 μm (40× objectives) images. TNFα intensity was measured using the mean grey value of the entire image while Iba1 intensity measurements were obtained using a thresholded area to highlight only the microglia. Cell body area (μm^2) was measured based on Iba1 staining and using the freehand selection tool. […] The following parameters were analyzed for 40 microglia per group: total process length (sum of length of all processes), total process volume, process diameter and number of branch points and terminals. […]

Compound | microglia cell body area (5 d cocaine) | decrease of total length of microglia processes (after 5 days cocaine) | Iba1 intensity in nucleus accumbens (24 hours after a single MPLA injection 10 μg, after 10 day withdrawal from cocaine)
COC(=O)[C@H]1[C@@H](OC(=O)c2ccccc2)C[C@@H]2CC[C@H]1N2C [cocaine] | 37.2±0.9 μm^2 | 20% | 
monophosphoryl lipid A [MPLA] |  |  | significantly increased
